Data as given in patent US10766914B2, “DNA alkylating agents” (OBI PHARMA, INC., priority 2015, dated 2020).

What was measured:
[1] = system: A375 melanoma human tumor xenograft; assay: Example 4-C antitumor efficacy, ectopic A375 melanoma xenograft model; type: in vivo, female nude mice (nu/nu); details: qd × 5 × 2, ip; for inhibition in vivo at 10 mg/kg: A-375, 10 mpk
Excerpt: (§1) Specific pathogen-free homozygous female nude mice (nu/nu, Charles River Laboratories) were used. Mice were given food and water ad libitum and housed in microisolator cages. Four to six week old animals were identified by microchips (Locus Technology, Manchester, Md., USA) at the time of the experiments. All animal studies were approved by the Institutional Animal Care and Use Committee at Threshold Pharmaceuticals, Inc.
(§2) All cell lines were from the American Type Culture Collection (ATCC, Rockville, Md., USA).
(§3) Cells were mixed with Matrigel (50% with exception for 30% in the H460) and 0.2 ml per mouse were subcutaneously implanted to the flank area of the animals. When tumor size reached 100-150 250 mm3, mice were randomized into experimental or vehicle groups with 10 mice/group and treatment was started (Day 1). The tested compounds were formulated in 5% DMSO in D5W. The regimens employed in the examples include IP, QD×5/wk (5 days on, 2 days off) as one cycle, for a total of 2 cycles; IP, once; IP, weekly for total 3 weeks; and IV, weekly for 3 weeks. Tumor growth and body weight were measured twice a week. Tumor volume was calculated as (length×width2)/2. Drug efficacy was assessed as Tumor Growth Inhibition (TGI) and Tumor Growth Delay (TGD). TGI was defined as (1−ΔT/ΔC)×100, where ΔT/ΔC presented the ratio of the change in mean (or median, if variation within the group was relatively large) tumor volume of the treated group and of the control group. TGD was calculated as the extra days for the treated tumor to reach 500 mm3 or 1000 mm3 as compared to the control group. Animals were culled when individual tumor size reached over 2000 mm3 or mean tumor volume exceeded 1000 mm3 in the group. Data are expressed as the mean±SEM. One-way analysis of variance with Dunnett post comparison test (GraphPad Prism 4) or two-tailed student's t-test were used for analysis. A P level <0.05 was considered statistically significant.
his study employed an A375 melanoma human tumor xenograft model and various compounds provided herein were compared to thiotepa and the approved anti melanoma drug, nab-Paclitaxel.

[2] = Example 4-B body weight change, A549 xenograft study; type: in vivo, female nude mice (nu/nu)
Procedure: as §3
Antitumor effects of compounds provided herein were determined on A 549 non-small cell lung xenograft model in comparison with a chemotherapy agent, thiotepa. The dosing was as follows. Daily IP dosing: 5 doses then 2 days off then 5 more doses starting at 110 mm^3 tumors on day 1 (10 animals per group average tumor volume). The antitumor effects and the safety of administration are graphically illustrated below.

[3] = system: H460 cells; assay: Proliferation assay in H460 cells (2 hr exposure, AlamarBlue); type: cell-based, human; details: Homo sapiens, NCI-H460, 2 hrs exposure, wash, 70 hrs growth, read-out: IC 50 in proliferation assay in H460 cells
Procedure: In vitro proliferation data on the H460 […] human tumor cell line is reported above in the compound table.
Specifically, exponentially growing cells were seeded at a density of 4×10^3 cells per well in a 96 well plate and incubated at 37° C. in 5% CO2, 95% air and 100% relative humidity for 24 hours prior to addition of test compounds. Compounds were solubilized in 100% DMSO at 200 times the desired final test concentration. At the time of drug addition, compounds were further diluted to 4 times the desired final concentration with complete medium. Aliquots of 50 μl of compound at specified concentrations were added to microtiter wells already containing 150 μl of medium, resulting in the final drug concentration reported. After drug addition, the plates were incubated for an additional 2 hours at 37° C., 5% CO2, 95% air, and 100% relative humidity, then the drug was washed off and fresh medium was added and the plates were incubated for addition 70 hrs at 37° C., 5% CO2, 95% air and 100% relative humidity. At the end of this incubation, the viable cells were quantified using the AlamarBlue assay. The drug concentration resulting in growth inhibition of 50% (IC50) was calculated using Prism software (Irvine, Calif.), and the results were listed in the table.

[4] = Example 4-C body weight change, A375 xenograft study; type: in vivo, female nude mice (nu/nu); details: qd × 5 × 2, ip
Procedure: as §3
his study employed an A375 melanoma human tumor xenograft model and various compounds provided herein were compared to thiotepa and the approved anti melanoma drug, nab-Paclitaxel. The antitumor effects and the safety of administration are graphically illustrated below.

[5] = system: A 549 non-small cell lung xenograft; assay: Example 4-B antitumor efficacy, ectopic A549 NSCLC xenograft model; type: in vivo, female nude mice (nu/nu)
Excerpt: as §1, §2, §3
The dosing was as follows. Daily IP dosing: 5 doses then 2 days off then 5 more doses starting at 110 mm^3 tumors on day 1 (10 animals per group average tumor volume).
Doses were selected by first doing a toxicity test in CD1 mice as described above. The compounds were tested against Thio-tepa.

[6] = Pharmacokinetics in CD-1 mice following a single intraperitoneal dose (parent and TH2660); details: mouse, in vivo, ip, parent compound
Procedure: The pharmacokinetics of TH2873, TH2883, TH2888, TH2890, TH2901 and TH2926 were determined in CD-1 mice following a single intraperitoneal dose.
The pharmacokinetics of TH2660, the active metabolite, following a single intraperitoneal dose of TH2873, TH2883, TH2888, TH2890, TH2901 and TH2926 are shown below.

[7] = system: A549 NSCLC xenograft; assay: Example 4-D antitumor efficacy, ectopic A549 NSCLC xenograft model; type: in vivo, female nude mice (nu/nu); details: 10 mg/kg IP QD × 5/wk × 2 wks
Excerpt: as §1, §2, §3
(§4) The compounds were tested in another A549 model. The compounds were dosed as follows. Daily IP dosing: 5 doses then 2 days off then 5 more doses starting at 100 mm^3 tumors on day 1 (10 animals per group average tumor volume). The antitumor effects and the safety of administration are graphically illustrated below.

[8] = Example 4-D body weight change and lethal toxicity, A549 xenograft study; type: in vivo, female nude mice (nu/nu); details: 10 mg/kg IP QD × 5/wk × 2 wks; for Lethal Tox: 10 animals per group
Procedure: as §3, §4

Structure (SMILES)	TGD 500 ([1]; 10 mpk) [days]	TGD 1000 ([1]; 10 mpk) [days]	inhibition in vivo at 10 mg/kg ([1]; Mus musculus, read-out: TGI) [%]	IC50 [3] [nM]	Max. BW loss % ([4]; 10 mpk) [%]	AUC [6] [ng·h/mL]	Cmax [6] [ng/mL]	Tmax [6] [min]	half-life [6] [min]	TGD 500 [7] [days]	TGI [7] [%]	Max. BW loss % [8] [%]	Lethal Tox [8]	other results
O=[N+]([O-])c1ccc(COP(=O)(N2CC2)N2CC2)cc1Oc1ccccc1 [Compound 2850]	-2	0	2.7	20	2.8	–	–	–	–	–	–	–	–	Max. BW loss % ([2]; 10 mg/kg ip QD × 5/wk × 2 wks): 0.9%; Max. BW loss % ([2]; 20 mg/kg ip QD × 5/wk × 2 wks): 7.4%; TGD 500 ([5]; 10 mg/kg ip QD × 5/wk × 2 wks): 70 days; TGI ([5]; 10 mg/kg ip QD × 5/wk × 2 wks): 94.3%; TGD 500 ([5]; 20 mg/kg ip QD × 5/wk × 2 wks): >72 days; TGI ([5]; 20 mg/kg ip QD × 5/wk × 2 wks): 88.1%
COc1ccc(Oc2cc(C(C)OP(=O)(N3CC3)N3CC3)ccc2[N+](=O)[O-])cc1 (stereo not shown) [Compound 2873]	–	–	–	5	–	2100	8430	5	8.81	–	–	–	–	TGD 500 ([1]; 40 mpk): 12 days; TGD 1000 ([1]; 40 mpk): 11 days; inhibition in vivo at 40 mg/kg ([1]; Mus musculus, A-375, 40 mpk, read-out: TGI): 65%; Max. BW loss % ([4]; 40 mpk): 0%
CC(OP(=O)(N1CC1)N1CC1)c1ccc([N+](=O)[O-])c(Oc2ccc(S(C)(=O)=O)cc2)c1 (stereo not shown) [Compound 2883]	–	–	–	30	–	9080	7570	15	23.4	>85	93.5	15.8	5	–
O=[N+]([O-])c1ccc(COP(=O)(N2CC2)N2CC2)cc1Oc1ccc2c(c1)OCO2 [Compound 2888]	6	6	37.3	3	4.8	1600	5810	5	10.9	–	–	–	–	–
Cc1ccc(Oc2cc(COP(=O)(N3CC3)N3CC3)ccc2[N+](=O)[O-])cn1 [Compound 2890]	10	10	58.4	6	6.3	613	2730	5	5.49	–	–	–	–	–
CS(=O)(=O)c1ccc(Oc2cc(COP(=O)(N3CC3)N3CC3)ccc2[N+](=O)[O-])cc1 [Compound 2911]	–	–	–	8	–	–	–	–	–	63	88.7	11.1	0	–
